From patent US20260062422A1 (Halda Therapeutics OpCo, Inc., priority 2022, published 2026)

Target: T1, BRD4-BD2 (Homo sapiens, UniProt O60885)
T1 construct: made in house; host or cells: T7 phage grown in an E. coli host derived from BL21
Experiment: bromoKdELECT assay for binding affinity to BRD4-BD2
Conditions: Table 7
Procedure: Compounds were tested using a bromoKdELECT assay. T7 phage strains displaying bromodomains were grown in parallel in 24-well blocks in an E. coli host derived from the BL21 strain. E. coli were grown to log-phase and infected with T7 phage from a frozen stock (multiplicity of infection=0.4) and incubated with shaking at 32° C. until lysis (90-150 minutes). The lysates were centrifuged (5,000×g) and filtered (0.2 μm) to remove cell debris. Streptavidin-coated magnetic beads were treated with biotinylated small molecule or acetylated peptide ligands for 30 minutes at room temperature to generate affinity resins for bromodomain assays. The liganded beads were blocked with excess biotin and washed with blocking buffer (SeaBlock (Pierce), 1% BSA, 0.05% Tween 20, 1 mM DTT) to remove unbound ligand and to reduce nonspecific phage binding. Binding reactions were assembled by combining bromodomains, liganded affinity beads, and test compounds in 1× binding buffer (17% SeaBlock, 0.33×PBS, 0.04% Tween 20, 0.02% BSA, 0.004% Sodium azide, 7.4 mM DTT). Test compounds were prepared as 1000× stocks in 100% DMSO. Kds were determined using an 11-point 3-fold compound dilution series with one DMSO control point. All compounds for Kd measurements are distributed by acoustic transfer (non-contact dispensing) in 100% DMSO. The compounds were then diluted directly into the assays such that the final concentration of DMSO was 0.09%. All reactions performed in polypropylene 384-well plates. Each was a final volume of 0.02 ml. The assay plates were incubated at room temperature with shaking for 1 hour and the affinity beads were washed with wash buffer (1×PBS, 0.05% Tween 20). The beads were then resuspended in elution buffer (1×PBS, 0.05% Tween 20, 2 μM non-biotinylated affinity ligand) and incubated at room temperature with shaking for 30 minutes. The bromodomain concentration in the eluates was measured by qPCR.

Row | SMILES | Kd
1 | Cc1sc2c(c1C)C(c1ccc(Cl)cc1)=N[C@@H](CC(=O)NCCOCCOCCOC1CCN(c3ncc(C(=O)N[C@H]4C(C)(C)[C@H](Oc5ccc(C#N)c(Cl)c5)C4(C)C)cn3)CC1)c1nnc(C)n1-2 [Compound I-7] | < 50 nM
2 | CCNC(=O)C[C@@H]1N=C(c2ccc(OCCOC3CCN(c4ncc(C(=O)N[C@H]5C(C)(C)[C@H](Oc6ccc(C#N)c(Cl)c6)C5(C)C)cn4)CC3)cc2)c2c(sc(C)c2C)-n2c(C)nnc21 [Compound I-60, N-((1r,3r)-3-(3-chloro-4-cyanophenoxy)-2,2,4,4-tetramethylcyclobutyl)-2-(4-(2-(4-((S)-6-(2-(ethylamino)-2-oxoethyl)-2,3,9-trimethyl-6H-thieno[3,2-f][1,2,4]triazolo[4,3-a][1,4]diazepin-4-yl)phenoxy)ethoxy)piperidin-1-yl)pyrimidine-5-carboxamide] | 50 to 500 nM
3 | CCN(C)C(=O)C[C@@H]1N=C(c2ccc(OCCOC3CCN(c4ncc(C(=O)N[C@H]5C(C)(C)[C@H](Oc6ccc(C#N)c(Cl)c6)C5(C)C)cn4)CC3)cc2)c2c(sc(C)c2C)-n2c(C)nnc21 [Compound I-66] | 500 to 2500 nM
4 | CCNC(=O)C[C@@H]1N=C(c2ccc(OCC3CN(c4ncc(C(=O)N[C@H]5C(C)(C)[C@H](Oc6ccc(C#N)c(Cl)c6)C5(C)C)cn4)C3)cc2)c2c(sc(C)c2C)-n2c(C)nnc21 [Compound I-71] | < 50 nM
5 | CCNC(=O)C[C@@H]1N=C(c2ccc(OCCOC3CCN(c4ncc(C(=O)N[C@H]5C(C)(C)[C@H](Oc6ccc(C#N)c(Cl)c6)C5(C)C)cn4)CC3)c(F)c2F)c2c(sc(C)c2C)-n2c(C)nnc21 [Compound I-73] | 50 to 500 nM
6 | CCNC(=O)C[C@@H]1N=C(c2ccc(OCCOC3CCN(c4ncc(C(=O)N[C@H]5C(C)(C)[C@H](Oc6ccc(C#N)c(Cl)c6)C5(C)C)cn4)CC3)cc2F)c2c(sc(C)c2C)-n2c(C)nnc21 [Compound I-75] | 50 to 500 nM
7 | CCNC(=O)C[C@@H]1N=C(c2ccc(OCCOC3CCN(c4ncc(C(=O)N[C@H]5C(C)(C)[C@H](Oc6ccc(C#N)c(Cl)c6)C5(C)C)cn4)CC3)c(F)c2)c2c(sc(C)c2C)-n2c(C)nnc21 [Compound I-76] | 50 to 500 nM
8 | CCNC(=O)C[C@@H]1N=C(c2ccc(CCCC3CCN(c4ncc(C(=O)N[C@H]5C(C)(C)[C@H](Oc6ccc(C#N)c(Cl)c6)C5(C)C)cn4)CC3)cc2)c2c(sc(C)c2C)-n2c(C)nnc21 [Compound I-95] | > 2500 nM
9 | Cc1sc2c(c1C)C(c1ccc(CCCOC3CCN(c4ncc(C(=O)N[C@H]5C(C)(C)[C@H](Oc6ccc(C#N)c(Cl)c6)C5(C)C)cn4)CC3)cc1)=N[C@@H](CC(=O)NC(C)C)c1nnc(C)n1-2 [Compound I-100] | 500 to 2500 nM
10 | CCN(C)C(=O)C[C@@H]1N=C(c2ccc(CCCOC3CCN(c4ncc(C(=O)N[C@H]5C(C)(C)[C@H](Oc6ccc(C#N)c(Cl)c6)C5(C)C)cn4)CC3)cc2)c2c(sc(C)c2C)-n2c(C)nnc21 [Compound I-101] | > 2500 nM

Next, values leading:

Row | Kd | SMILES
11 | 50 to 500 nM | Cc1sc2c(c1C)C(c1ccc(CCCOC3CCN(c4ncc(C(=O)N[C@H]5C(C)(C)[C@H](Oc6ccc(C#N)c(Cl)c6)C5(C)C)cn4)CC3)cc1)=N[C@@H](CC(=O)NC1CC1)c1nnc(C)n1-2 [Compound I-102]
12 | 50 to 500 nM | CCNC(=O)C[C@@H]1N=C(c2ccc(N(C)CC3CN(c4ncc(C(=O)N[C@H]5C(C)(C)[C@H](Oc6ccc(C#N)c(Cl)c6)C5(C)C)cn4)C3)cc2)c2c(sc(C)c2C)-n2c(C)nnc21 [Compound I-107]
13 | 500 to 2500 nM | CCNC(=O)C[C@@H]1N=C(c2ccc(N(C)CCN3CCN(c4ncc(C(=O)N[C@H]5C(C)(C)[C@H](Oc6ccc(C#N)c(Cl)c6)C5(C)C)cn4)CC3)cc2)c2c(sc(C)c2C)-n2c(C)nnc21 [Compound I-108]
14 | 50 to 500 nM | CCNC(=O)C[C@@H]1N=C(c2ccc(N3CCC(N(C)C4CCN(c5ncc(C(=O)N[C@H]6C(C)(C)[C@H](Oc7ccc(C#N)c(Cl)c7)C6(C)C)cn5)CC4)CC3)cc2)c2c(sc(C)c2C)-n2c(C)nnc21 [Compound I-113]
15 | 500 to 2500 nM | CCNC(=O)C[C@@H]1N=C(c2ccc(N3CCC(OC4CCN(c5ncc(C(=O)N[C@H]6C(C)(C)[C@H](Oc7ccc(C#N)c(Cl)c7)C6(C)C)cn5)CC4)CC3)cc2)c2c(sc(C)c2C)-n2c(C)nnc21 [Compound I-114]
16 | 50 to 500 nM | CCNC(=O)C[C@@H]1N=C(c2ccc(N(C)C3CN(CC4CCN(c5ncc(C(=O)N[C@H]6C(C)(C)[C@H](Oc7ccc(C#N)c(Cl)c7)C6(C)C)cn5)CC4)C3)cc2)c2c(sc(C)c2C)-n2c(C)nnc21 [Compound I-119]
17 | > 2500 nM | Cc1sc2c(c1C)C(c1ccc(CCCOC3CCN(c4ncc(C(=O)N[C@H]5C(C)(C)[C@H](Oc6ccc(C#N)c(Cl)c6)C5(C)C)cn4)CC3)cc1)=N[C@@H](Cc1ncco1)c1nnc(C)n1-2 [Compound I-131, N-[3-(3-chloro-4-cyano-phenoxy)-2,2,4,4-tetramethyl-cyclobutyl]-2-[4-[3-[4-[(9S)-4,5,13-trimethyl-9-(oxazol-2-ylmethyl)-3-thia-1,8,11,12-tetrazatricyclo[8.3.0.02,6]trideca-2(6),4,7,10,12-pentaen-7-yl]phenyl]propoxy]-1-piperidyl]pyrimidine-5-carboxamide]
18 | > 2500 nM | COCC[C@@H]1N=C(c2ccc(CCCOC3CCN(c4ncc(C(=O)N[C@H]5C(C)(C)[C@H](Oc6ccc(C#N)c(Cl)c6)C5(C)C)cn4)CC3)cc2)c2c(sc(C)c2C)-n2c(C)nnc21 [Compound I-227, N-[3-(3-chloro-4-cyano-phenoxy)-2,2,4,4-tetramethyl-cyclobutyl]-2-[4-[3-[4-[(9S)-9-(2-methoxyethyl)-4,5,13-trimethyl-3-thia-1,8,11,12-tetrazatricyclo[8.3.0.02,6]trideca-2(6),4,7,10,12-pentaen-7-yl]phenyl]propoxy]-1-piperidyl]pyrimidine-5-carboxamide]
19 | > 2500 nM | Cc1sc2c(c1C)C(c1ccc(CCCOC3CCN(c4ncc(C(=O)N[C@H]5C(C)(C)[C@H](Oc6ccc(C#N)c(Cl)c6)C5(C)C)cn4)CC3)cc1)=N[C@@H](C)c1nnc(C)n1-2 [Compound I-228, N-[3-(3-chloro-4-cyano-phenoxy)-2,2,4,4-tetramethyl-cyclobutyl]-2-[4-[3-[4-[(9S)-4,5,9,13-tetramethyl-3-thia-1,8,11,12-tetrazatricyclo [8.3.0.02,6]trideca-2(6),4,7,10,12-pentaen-7-yl]phenyl]propoxy]-1-piperidyl]pyrimidine-5-carboxamide]
